# Values quoted from earlier work as cited in patent US11214591B2, “Enzyme compositions, steroid derivatives, enzyme inhibitors, and methods of making same for pharmaceutical applications” (BOARD OF REGENTS, THE UNIVERSITY OF TEXAS SYSTEM, priority 2018, dated 2022).
# Experiments:
# [1] = male rats
# [2] = mice feeding study; bile acid composition of micelles
# [3] = in vivo
# [4] = in vivo; remark: listed apart in the source
smiles,measurement,setting,value
"C[C@]12CC[C@H](O)CC1=CC(=O)[C@@H]1[C@@H]2CC[C@]2(C)C(=O)CC[C@@H]12 [7-Keto DHEA, 7-keto dehydroepiandrosterone]",voluntary intake of ethanol,[1],decreased voluntary intake of ethanol
C[C@H](CCC(=O)O)[C@H]1CC[C@H]2[C@@H]3[C@H](O)C[C@@H]4C[C@H](O)CC[C@]4(C)[C@H]3CC[C@]12C [chenodeoxycholic acid],cholesterol absorption,[2],60%
"CC(=O)O[C@H]1CC[C@@]2(C)C(=CC(=O)[C@@H]3[C@@H]2CC[C@]2(C)C(=O)CC[C@@H]32)C1 [7-keto DHEA-3OAc, 7-keto dehydroepiandrosterone-3-acetate]",PTSD symptoms,[3],reduce post-traumatic stress disorder (PTSD) symptoms
same,resting metabolic rate associated with dieting,[4],reverse the resting metabolic rate associated with dieting
